From patent US12268666B2, “Spray-dried dispersions, formulations, and polymorphs of (S)-5-amino-3-(4-((5-fluoro-2-methoxybenzamido)methyl)phenyl)-1-(1,1,1-trifluoropropan-2-yl)-1H-pyrazole-4-carboxamide” (Loxo Oncology, Inc., priority 2018, dated 2025)
Entries after “also recorded” stand apart in the source; their conditions may differ.

Columns and labels:
PLCγ2 = PLCγ2 Y1217 phosphorylation in Ramos RA1 cells; type: cell-based; conditions: anti-human IgM stimulation
Experimental: (§1) Ramos RA1 cells, obtained from ATCC (CRL-1596), are grown in RPMI 1640+10% fetal bovine serum (FBS) at 37° C. in a CO2 incubator. […] Nine hundred μL of cell/well are added to 24 well plates and 100 uL of 10× stocks of inhibitor are added. The 10× compound of Formula I stocks are prepared in 1% DMSO, by doing a 1:3 dilution series with final concentrations in the wells ranging between 900 nM to 0.41 nM. […] All samples are tested in triplicate. After 2 hours (starvation and dosing) sodium orthovanadate is added to a final concentration of 200 μM and incubated for 30 more min. Cells are then stimulated with 4 uL of goat F(ab′)2 anti-human IgM (Jackson ImmunoResearch #109-006-129) for 5 min at room temperature, spun down, resuspended in 100 uL of […]™ M (Sigma #C2978) containing 5× Halt phosphatase and protease inhibitor cocktails (Pierce #78442), and stored at −80° C. Lysates are quantified by BCA (Pierce #23225) and analyzed by Simple Western (Protein Simple) with the following antibodies: anti-phospho-BTK (Y223) (Cell Signaling Technologies (CST) #5082), anti-BTK (CST #8547), anti-phospho-PLCγ2 (Y1217) (CST 3871), anti-PLCγ2 (CST 3872), and anti-GAPDH (GAPDH refers to glyceraldehyde 3-phosphate dehydrogenase) (Novus #MAB5718-SP). […] Results are analyzed with Compass software (Protein Simple), and IC50 values are calculated on GraphPad Prism 7.04 software.

[1] = Solubility screening in lipid vehicles; type: physicochemical
Experimental: The solubility of the compound of Formula I in lipid vehicles is also examined. The compound of Formula I Form A is added into a clear, 20 mL glass vials followed by the corresponding excipients, e.g., MIGLYOL® 812 (saturated coconut and palmkernel oil-derived caprylic and capric fatty acids and glycerin, e.g., C8 and C10 triglycerides), CAPMUL® MCM EP (glyceryl monocaprylocaprate type I (EP)), PECEOL™ (glycerol monooleates (type 40) EP, glyceryl monooleate (type 40) NF), LABRAFIL® M2125CS (linoleoyl polyoxyl-6 glycerides), LAUROGLYCOL™ FCC (propylene glycol monolaurate (type I)), Span® 80 (sorbitane monooleate), PHOSAL® 53 MCT (lecithin in caprylic/capric triglycerides, alcohol, glyceryl stearate, oleic acid, and ascorbyl palmitate), or capmul PG-8 (propylene glycol monocaprylate). The samples are then homogenized with a handheld homogenizer for 10 minutes until the compound of Formula I is visibly dissolved. […] A set of matching control formulations are also prepared.

BTK C481S = BTK C481S (Homo sapiens, UniProt Q06187, C481S); assay: Y223 autophosphorylation in HEK293 cells stably expressing BTK C481S; type: cell-based; design: expressed in transfected cells; host or cells: HEK293; conditions: C481S mutant, 2 hr treatment, signal normalized to total BTK
Chain of BTK C481S (Q06187 whole entry C481S): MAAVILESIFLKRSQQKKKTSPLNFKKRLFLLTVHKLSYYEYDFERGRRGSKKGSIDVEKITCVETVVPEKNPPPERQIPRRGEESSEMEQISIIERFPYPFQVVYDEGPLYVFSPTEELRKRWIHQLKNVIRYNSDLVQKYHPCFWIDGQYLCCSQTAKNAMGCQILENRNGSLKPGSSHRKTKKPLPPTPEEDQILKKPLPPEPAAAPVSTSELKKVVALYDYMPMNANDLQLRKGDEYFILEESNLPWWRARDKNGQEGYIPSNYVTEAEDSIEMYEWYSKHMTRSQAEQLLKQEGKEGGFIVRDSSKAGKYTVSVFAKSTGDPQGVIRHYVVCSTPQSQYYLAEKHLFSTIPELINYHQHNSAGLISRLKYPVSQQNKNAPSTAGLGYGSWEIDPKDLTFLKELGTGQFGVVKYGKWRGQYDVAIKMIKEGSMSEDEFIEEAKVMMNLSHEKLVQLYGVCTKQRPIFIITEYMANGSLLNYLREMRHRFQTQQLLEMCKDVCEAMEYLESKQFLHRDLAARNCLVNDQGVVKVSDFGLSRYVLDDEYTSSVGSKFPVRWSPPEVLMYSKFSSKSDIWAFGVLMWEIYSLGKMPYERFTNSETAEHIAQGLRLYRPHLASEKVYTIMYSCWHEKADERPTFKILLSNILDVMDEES
Experimental: (§2) HEK293 cell lines stably expressing BTK wild type and the mutant form C481S are generated using standard transfection methods. For assessment of cellular inhibition potency, cells are grown in DMEM +10% Fetal Bovine Serum (FBS)+1 μg/ml puromycin (complete growth media) at 37° C. in a CO2 incubator. Cells are harvested according to standard protocols using TRYPLE™ (Gibco #12604-013), counted, resuspended in complete growth media, and added to 6 well assay plates at 4×10 ^5 cell/well in 2 mL. Plates are incubated overnight at 37° C. with 5% CO2. […] All samples are tested in triplicate. Following compound incubation, the growth medium is discarded, cells are washed with DPBS (1×) (Gibco #14190-144) and lysed in 1 mL of […]™ M (Sigma #C2978) containing 1× Halt phosphatase and protease inhibitor cocktails (Pierce #78442). Plates are placed on ice for 1 hr with gentle agitation and stored at −80° C. overnight. The next day, cell lysates are placed in 1.5 mL tubes and cleared by centrifugation at 16,000×g for 10 min at 4° C. Supernatants are quantified by BCA (Pierce #23225) and stored at −80° C. Samples are analyzed by Simple Western (Protein Simple) with anti-phospho-BTK (Y223) (Cell Signaling Technologies (CST) #5082) and anti-BTK (CST #8547) (FIGS. 10A and 10B). β-actin is used as a loading control and detected by regular Western blot with an anti-3-actin antibody (CST #4970).

[2] = Aqueous solubility at different pH values; type: physicochemical
BTK wild type = biological target: T1, BTK wild type (Homo sapiens, UniProt Q06187); assay: Y223 autophosphorylation in HEK293 cells stably expressing BTK; type: cell-based; conditions: 2 hr treatment, signal normalized to total BTK
T1 construct: expressed in transfected cells; host or cells: HEK293
T1 sequence (Q06187 whole entry): as the sequence (Q06187 whole entry C481S) above, with S481C counted along it
Experimental: as §2

[3] = Kinetic solubility in FaSSGF, FaSSIF and FeSSIF media; type: physicochemical; conditions: kinetic from dmso stock
Experimental: The solubility of the compound of Formula I is also tested under conditions that simulate gut fluids (Fasted State Simulated Intestinal Fluid [FaSSIF], Fed State Simulated Intestinal Fluid [FeSSIF], and Fasted State Simulated Gastric Fluid [FaSSGF]) as shown in Table 9.

BTK = biological target: T2, BTK (Homo sapiens, UniProt Q06187); assay: BTK Y223 autophosphorylation in Ramos RA1 cells; type: cell-based; conditions: anti-human IgM stimulation
T2 construct: host or cells: Ramos RA1
T2 sequence (Q06187 whole entry): as the sequence (Q06187 whole entry C481S) above, with S481C counted along it
Experimental: as §1

[4] = FaSSGF (Fasted State Simulated Gastric Fluid), fassgf or other biorelevant, pH 1.6 FaSSGF
[5] = FaSSIF (Fasted State Simulated Intestinal Fluid), pH 6.5 FaSSIF
[6] = FeSSIF (Fed State Simulated Intestinal Fluid), pH 6.5 FeSSIF

SMILES: COc1ccc(F)cc1C(=O)NCc1ccc(-c2nn([C@@H](C)C(F)(F)F)c(N)c2C(N)=O)cc1 [compound of Formula I, (S)-5-amino-3-(4-((5-fluoro-2-methoxybenzamido)methyl)phenyl)-1-(1,1,1-trifluoropropan-2-yl)-1H-pyrazole-4-carboxamide]
- IC50 (PLCγ2): 8.2 nM
- HPLC Solubility ([1]; CAPMUL ® MCM EP, 40 °C): 33.3 mg API per g mixture
- HPLC Solubility ([1]; Capmul PG-8, 25 °C): 30.3 mg API per g mixture
- HPLC Solubility ([1]; Glycerine, 25 °C): 0.5 mg API per g mixture
- HPLC Solubility ([1]; KOLLIPHOR ® EL, 25 °C): 46.2 mg API per g mixture
- HPLC Solubility ([1]; LABRAFIL ® M2125CS, 25 °C): 3.2 mg API per g mixture
- HPLC Solubility ([1]; LABRASOL ® ALF, 25 °C): 104.1 mg API per g mixture
- HPLC Solubility ([1]; LAUROGLYCOL ™ FCC, 25 °C): 5.1 mg API per g mixture
- HPLC Solubility ([1]; Long chain triglycerides/long chain lipid digestion products, 25 °C): 0.02 mg API per g mixture
- HPLC Solubility ([1]; MIGLYOL ® 812, 25 °C): 0.62 mg API per g mixture
- HPLC Solubility ([1]; Medium chain triglycerides/medium chain lipid digestion products, 25 °C): 0.02 mg API per g mixture
- HPLC Solubility ([1]; Oleic acid, 25 °C): 1.2 mg API per g mixture
- HPLC Solubility ([1]; PECEOL ™, 40 °C): 6.6 mg API per g mixture
- HPLC Solubility ([1]; PEG-400 (Macrogol 400), 25 °C): 168.9 mg API per g mixture
- HPLC Solubility ([1]; PHOSAL ® 53 MCT, 25 °C): 11.3 mg API per g mixture
- HPLC Solubility ([1]; Polysorbate 80/Tween-80, 25 °C): 43.6 mg API per g mixture
- HPLC Solubility ([1]; Propylene glycol, 25 °C): 29.4 mg API per g mixture
- HPLC Solubility ([1]; SPAN ® 80, 25 °C): 6.2 mg API per g mixture
- HPLC Solubility ([1]; Sesame oil, 25 °C): 0.07 mg API per g mixture
- HPLC Solubility ([1]; Vitamin E-TPGS NF, 40 °C): 43.1 mg API per g mixture
- excipients in which solubility is best ([1]; excipient screen for lipid-based formulations): best in PEG 400, LABRASOL® ALF (e.g., caprylocaproyl polyoxyl-8 glycerides), KOLLIPHOR® EL (e.g., polyoxyl castor oil), Tween 80, and Vitamin E TPGS; also recorded: most soluble in LABRASOL® ALF and PEG-400
- IC50 (BTK C481S): 8.8 ± 1.8 nM
- solubility ([2]; aqueous solution, aqueous buffer, between pH 1 to pH 10): 14 to 17 µg/mL
- solubility ([2]; aqueous solution, aqueous buffer, pH 3, actual media pH 3.03): 14 µg/mL
- solubility ([2]; aqueous solution, aqueous buffer, pH 4, actual media pH 4.04): 14 µg/mL
- solubility ([2]; aqueous solution, aqueous buffer, pH 6, actual media pH 6.04): 14 µg/mL
- solubility ([2]; aqueous solution, aqueous buffer, pH 8, actual media pH 8.02): 14 µg/mL
- solubility ([2]; aqueous solution, aqueous buffer, pH 10, actual media pH 9.98): 14 µg/mL
- solubility ([2]; aqueous solution, simulated gastric fluid, pH 1.5, actual media pH 1.49): 15 µg/mL
- solubility ([2]; aqueous solution, simulated gastric fluid, pH 2, actual media pH 2.06): 15 µg/mL
- solubility ([2]; simulated gastric fluid, (0.1 N HCl) pH 1, actual media pH 1.09): 17 µg/mL
- IC50 (BTK wild type): 8.6 ± 0.3 nM
- solubility kinetic at 4 h [3, 4]: 22 µg/mL
- solubility kinetic at 24 h [3, 4]: 24 µg/mL
- solubility kinetic at 4 h [3, 5]: 23 µg/mL
- solubility kinetic at 24 h [3, 5]: 20 µg/mL
- solubility kinetic at 4 h [3, 6]: 44 µg/mL
- solubility kinetic at 24 h [3, 6]: 47 µg/mL
- IC50 (BTK): 3.2 ± 0.6 nM
